Patent US10981893B2, “Therapeutic inhibitory compounds” (Attune Pharmaceuticals, Inc., priority 2015, dated 2021)

How the values were obtained:
human Plasma Kallikrein = human Plasma Kallikrein (Homo sapiens (Human), UniProt P03952); test: In vitro enzyme inhibition of human plasma kallikrein (Pro-Phe-Arg-AMC cleavage); assay type: biochemical; conditions: PFR-AMC substrate, 37° C., read-out: hPK IC50
Procedure: The ability of the compounds disclosed herein to inhibit human plasma kallikrein activity was quantified according to the procedures below.
A 10 mM solution of the test compound was made in DMSO. This solution was serially diluted 1:5 in DMSO to yield 2000, 400, 80, 16, 3.2, 0.64, 0.128, 0.0256 and 0.00512 μM compound test solutions. A control tube containing only DMSO is included. 16 μL of each compound test solution was combined with 384 μL of assay buffer (50 mM Tris-HCl pH 7.5, 150 mM NaCl, 0.01% Triton X-100) to yield a “4× test compound buffer stock”.
Separately, a 40 nM solution of human Plasma Kallikrein (Abcam) and a 93.6 μM solution Pro-Phe-Arg-AMC (Bachem) were made using assay buffer. These solutions are hereby refereed to as 4×hPK and 2×PFR-AMC, respectively.
60 μL of each 4× test compound buffer stock was combined with 60 μL of 4× hPK to yield 120 μL of “2× test compound buffer stock/2×hPK”. 50 μL was removed from this mixture and placed into duplicate wells on a Microfluor 1 Black U-bottom microtiter plate (Thermo Scientific). This plate was incubated for 5 minutes at 37° C. To each well, 50 μL of pre-warmed 2×PFR-AMC was added to start the enzymatic reaction. Cleavage of PFR-AMC was monitored in a Biotek Synergy H4 reader set at 37° C. Readings are taken every 43 seconds for 1 hour. The highest mean velocity over 20 reads (˜15 minutes) is used to calculate the IC50. The IC50 is calculated using the Gen5 (Biotek Instruments).
The ability of the compounds in Table 1 to inhibit human plasma kallikrein activity was determined and the data is shown in Table 3.

[1] = biological target: kallikrein in human plasma (Homo sapiens (Human), UniProt P03952); test: In vitro cellular assay / contact assay: kallikrein activity in ellagic acid-activated human plasma (Z-FR-2-AMC substrate); assay type: biochemical; conditions: human plasma activated with ellagic acid, 37° C.
Procedure: The ability of the compounds disclosed herein to inhibit cellular kallikrein activity was quantified and the respective EC50 value was determined.
Plasma kallikrein inhibitor C1NH (Athens Research & Technology, Cat #16-16-031509); Ellagic acid (Sigma, E2250); Substrate Z—FR-2-AMC (GL Biochem, Cat #55352); Nunc™ 96-Well Polypropylene MicroWell™ Plates (Nunc, Cat #267342)
All dilutions were prepared in an assay buffer comprising 50 mM Tris-HCl pH 7.2, 150 mM NaCl, and 0.01% Triton X-100.
Four fold serial dilutions were prepared from a 107.53 μM plasma kallikrein inhibitor C1NH stock solution, to yield ten solutions with concentrations between 20 μM and […]. Similarly, four fold serial dilutions were prepared from 10 mM stock solutions of various test compounds, to yield ten solutions with concentrations between 4 mM and 0.015 μM. The ten solutions of the test compounds, prepared by serial dilution, were further diluted 50-fold in the assay buffer.
Human plasma is thawed on ice and centrifuged for 15 min at 4° C. to remove platelets. A 1 mM stock solution of ellagic acid is diluted to 8 μM and mixed with human plasma, after removing platelets, at a ratio of 1:0.8. The mixture of human plasma and ellagic acid was further diluted 32-fold in the assay buffer, to yield the final mixture for use in the inhibition assay.
A 22.5 μL volume of the final mixture of human plasma and ellagic acid was added to a 96-well microwell plate and the plate was incubated for 15 min at 37° C.
The test compounds at various concentrations, also prepared by serial dilutions as described above, are added to the test wells. The volume of test compound added to each test well was 12.5 μL, to yield final concentrations of 20 μM, 5 μM, 1.25 μM, 312.5 nM, 78.125 nM, 19.531 nM, 4.883 nM, 1.221 nM, 0.305 nM, and 0.076 nM. Each test compound concentration was tested in duplicates.
In addition to the inhibitor control and test wells, the 96 well assay plate includes positive control wells which contained the mixture of human plasma and ellagic acid without C1NH inhibitor or test compounds, and background wells which contained neither the mixture of human plasma and ellagic acid nor the test compounds. The total volume of liquid in positive control and background wells was brought up to 35 μL, using the assay buffer.
The assay plate containing C1NH inhibitors and test compounds mixed with human plasma and ellagic acid and appropriate controls was incubated at 37° C. for 5 min. A 10 mM stock solution of substrate Z—FR-2-AMC was diluted to 133.2 μM in the assay buffer, and 15 μL of the diluted substrate was added to each well, to yield a final substrate concentration of 40 μM in each well. […]
The enzyme reaction was quantified by immediate kinetic reading of the assay plate using excitation/emission wavelengths of 330 nm/440 nm respectively. Fluorescence intensity was recorded for 60 min, using a time interval of 43 sec.
The inhibition activity of the test compounds were evaluated using the IC50 values, calculated according to the dose-response curve of the test compounds, fitted using the “log(inhibitor)-response(variable slope)” equation in GraphPadPrism software (GraphPad Software, Inc.).
The percentage inhibition was calculated using the following equation:
[formula] where, Mean(BG) is the average value of the fluorescence intensity of the background wells and Mean(PC) is the average value of the fluorescence intensity of the positive control wells. […]

human Plasma Kallikrein, sequence (P03952 391-638 limits assumed): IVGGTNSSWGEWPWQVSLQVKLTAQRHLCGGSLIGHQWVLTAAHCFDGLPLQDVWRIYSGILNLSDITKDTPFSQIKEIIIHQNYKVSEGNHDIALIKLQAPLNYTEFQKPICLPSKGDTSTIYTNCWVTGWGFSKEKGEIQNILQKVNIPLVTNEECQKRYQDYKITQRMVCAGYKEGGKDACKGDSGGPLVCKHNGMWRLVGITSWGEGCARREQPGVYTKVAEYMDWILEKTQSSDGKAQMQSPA
human Plasma Kallikrein, sequence (P03952 20-390 partner limits assumed): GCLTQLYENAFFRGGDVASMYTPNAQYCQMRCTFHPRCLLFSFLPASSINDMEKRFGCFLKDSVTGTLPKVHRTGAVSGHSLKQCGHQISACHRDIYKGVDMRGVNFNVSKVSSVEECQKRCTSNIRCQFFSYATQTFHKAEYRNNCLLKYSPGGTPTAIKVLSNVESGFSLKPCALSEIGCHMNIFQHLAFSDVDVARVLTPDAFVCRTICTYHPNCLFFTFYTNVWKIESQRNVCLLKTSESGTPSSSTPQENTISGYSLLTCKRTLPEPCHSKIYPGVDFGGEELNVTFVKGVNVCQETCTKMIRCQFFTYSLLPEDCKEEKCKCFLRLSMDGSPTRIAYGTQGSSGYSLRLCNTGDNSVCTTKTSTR
kallikrein in human plasma, sequence (P03952 391-638 limits assumed): as the sequence (P03952 391-638 limits assumed) above
kallikrein in human plasma, sequence (P03952 20-390 partner limits assumed): as the sequence (P03952 20-390 partner limits assumed) above

Row | Compound | IC50 (human Plasma Kallikrein) | EC50 [1]
1 | Cc1cc(C#N)ccc1CNC(=O)c1ccnc(Cc2ccc(Cn3ccccc3=O)cc2)c1 [Example 19, N-(4-cyano-2-methylbenzyl)-2-(4-((2-oxopyridin-1(2H)-yl)methyl)benzyl)isonicotinamide] | > 10000 nM | 
2 | NC(=O)c1cnn(Cc2cncc(C(=O)NCc3cc4c(Cl)c[nH]c4cc3F)c2)c1 [Example 8, 5-((4-carbamoyl-1H-pyrazol-1-yl)methyl)-N-((3-chloro-6-fluoro-1H-indol-5-yl)methyl)nicotinamide] | > 10000 nM | 
3 | O=C(NCc1ccc(Br)c(F)c1)c1ccnc(Cc2ccc(Cn3ccccc3=O)cc2)c1 [Example 18, N-(4-bromo-3-fluorobenzyl)-2-(4-((2-oxopyridin-1(2H)-yl)methyl)benzyl)isonicotinamide] | > 10000 nM | 
4 | CC(=O)N(Cc1ccn(Cc2cc(C(=O)NCc3cc4c(Cl)c[nH]c4cc3F)ccn2)n1)C1CC1 [Example 9, N-((3-chloro-6-fluoro-1H-indol-5-yl)methyl)-2-((3-((N-cyclopropylacetamido)methyl)-1H-pyrazol-1-yl)methyl)isonicotinamide] | > 10000 nM | 
5 | O=C(NCc1n[nH]c2ccc(Cl)cc12)c1cncc(Cc2ccccc2C(F)(F)F)c1 [Example 1, N-((5-chloro-1H-indazol-3-yl)methyl)-5-(2-(trifluoromethyl)benzyl)nicotinamide] | 1000 to 10000 nM | 
6 | O=C(NC(C(=O)O)c1n[nH]c2ccc(Cl)cc12)c1cncc(Cc2ccc(Cn3ccccc3=O)cc2)c1 (centres unmarked) [Example 12, 2-(5-chloro-1H-indazol-3-yl)-2-(5-(4-((2-oxopyridin-1(2H)-yl)methyl)benzyl)nicotinamido)acetic acid] | 1000 to 10000 nM | 
7 | O=C(NCc1n[nH]c2ccc(Cl)cc12)c1cncc(Cc2ccc(C(F)(F)F)cc2)c1 [Example 3, N-((5-chloro-1H-indazol-3-yl)methyl)-5-(4-(trifluoromethyl)benzyl)nicotinamide] | 1000 to 10000 nM | 
8 | NC(=O)c1ccccc1Cc1cncc(C(=O)NCc2n[nH]c3ccc(Cl)cc23)c1 [Example 6, 5-(2-carbamoylbenzyl)-N-((5-chloro-1H-indazol-3-yl)methyl)nicotinamide] | 1000 to 10000 nM | 
9 | N#Cc1ccc(Cc2cncc(C(=O)NCc3n[nH]c4ccc(Cl)cc34)c2)cc1 [Example 2, N-((5-chloro-1H-indazol-3-yl)methyl)-5-(4-cyanobenzyl)nicotinamide] | 1000 to 10000 nM | 
10 | CS(=O)(=O)c1cc(Cc2cc(C(=O)NCc3ccc(N)nc3C(F)(F)F)ccn2)ccc1Cn1ccccc1=O [Example 26, N-((6-amino-2-(trifluoromethyl)pyridin-3-yl)methyl)-2-(3-(methylsulfonyl)-4-((2-oxopyridin-1(2H)-yl)methyl)benzyl)isonicotinamide] | 1000 to 10000 nM | 
11 | COc1ccc(CNC(=O)c2cncc(Cc3ccc(Cn4ccccc4=O)cc3)c2)cc1 [Example 16, N-(4-methoxybenzyl)-5-(4-((2-oxopyridin-1(2H)-yl)methyl)benzyl)nicotinamide] | 1000 to 10000 nM | 
12 | O=C(NCc1ccc(Cl)cc1)c1cncc(Cc2ccc(Cn3ccccc3=O)cc2)c1 [Example 15, N-(4-chlorobenzyl)-5-(4-((2-oxopyridin-1(2H)-yl)methyl)benzyl)nicotinamide] | 1000 to 10000 nM | 

Other lines, results leading:

Row | IC50 (human Plasma Kallikrein) | EC50 [1] | Compound
13 | ≤ 100 nM |  | Cc1cc(N)nc(C)c1CNC(=O)c1ccnc(Cc2ccc3ncc(Cl)cc3c2)n1 [Example 24, N-((6-amino-2,4-dimethylpyridin-3-yl)methyl)-2-((3-chloroquinolin-6-yl)methyl)pyrimidine-4-carboxamide]
14 | 1000 to 10000 nM |  | Cc1ccc(Cc2cncc(C(=O)NCc3n[nH]c4ccc(Cl)cc34)c2)cc1 [Example 4, N-((5-chloro-1H-indazol-3-yl)methyl)-5-(4-methylbenzyl)nicotinamide]
15 | ≤ 100 nM | ≤ 100 nM | Cc1nc(N)ccc1CNC(=O)c1ccnc(Cc2ccc(Cn3ccccc3=O)c(S(C)(=O)=O)c2)c1 [Example 23, N-((6-amino-2-methylpyridin-3-yl)methyl)-2-(3-(methylsulfonyl)-4-((2-oxopyridin-1(2H)-yl)methyl)benzyl)isonicotinamide]
16 | ≤ 100 nM |  | CS(=O)(=O)c1cc(Cc2cc(C(=O)NCc3n[nH]c4ccc(Cl)cc34)ccn2)ccc1Cn1ccccc1=O [Example 30, N-((5-chloro-1H-indazol-3-yl)methyl)-2-(3-(methylsulfonyl)-4-((2-oxopyridin-1(2H)-yl)methyl)benzyl)isonicotinamide]
17 | 1000 to 10000 nM |  | O=C(NCc1n[nH]c2ccc(Cl)cc12)c1cncc(Cc2ccccc2)c1 [Example 5, 5-benzyl-N-((5-chloro-1H-indazol-3-yl)methyl)nicotinamide]
18 | ≤ 100 nM | ≤ 100 nM | Cc1cc(N)nc(C)c1CNC(=O)c1cncc(Cc2ccc3ncc(Cl)cc3c2)n1 [Example 25, N-((6-amino-2,4-dimethylpyridin-3-yl)methyl)-6-((3-chloroquinolin-6-yl)methyl)pyrazine-2-carboxamide]
19 | 1000 to 10000 nM |  | O=C(NCc1cc2c(Cl)c[nH]c2cc1F)c1ccc(=O)n(CC23CC(Cn4ccccc4=O)(C2)C3)c1 [Example 17, N-((3-chloro-6-fluoro-1H-indol-5-yl)methyl)-6-oxo-1-((3-((2-oxopyridin-1(2H)-yl)methyl)bicyclo[1.1.1]pentan-1-yl)methyl)-1,6-dihydropyridine-3-carboxamide]
20 | 1000 to 10000 nM |  | NC(=O)C(NC(=O)c1cncc(Cc2ccc(Cn3ccccc3=O)cc2)c1)c1n[nH]c2ccc(Cl)cc12 (centres unmarked) [Example 11, N-(2-amino-1-(5-chloro-1H-indazol-3-yl)-2-oxoethyl)-5-(4-((2-oxopyridin-1(2H)-yl)methyl)benzyl)nicotinamide]
21 | 100 to 1000 nM |  | CS(=O)(=O)c1cc(Cc2cc(C(=O)NCc3ccc4c(N)noc4c3)ccn2)ccc1Cn1ccccc1=O [Example 20, N-((3-aminobenzo[d]isoxazol-6-yl)methyl)-2-(3-(methylsulfonyl)-4-((2-oxopyridin-1(2H)-yl)methyl)benzyl)isonicotinamide]
22 | 1000 to 10000 nM |  | NC(=O)c1ccc(CNC(=O)c2cncc(Cc3ccc(Cn4ccccc4=O)cc3)c2)cc1 [Example 14, N-(4-carbamoylbenzyl)-5-(4-((2-oxopyridin-1(2H)-yl)methyl)benzyl)nicotinamide]
23 | 1000 to 10000 nM |  | N#Cc1cnn(Cc2cncc(C(=O)NCc3cc4c(Cl)c[nH]c4cc3F)c2)c1 [Example 7, N-((3-chloro-6-fluoro-1H-indol-5-yl)methyl)-5-((4-cyano-1H-pyrazol-1-yl)methyl)nicotinamide]
24 | 100 to 1000 nM |  | CS(=O)(=O)c1cc(Cc2cc(C(=O)NCc3cnc(N)cc3C(F)(F)F)ccn2)ccc1Cn1ccccc1=O [Example 27, N-((6-amino-4-(trifluoromethyl)pyridin-3-yl)methyl)-2-(3-(methylsulfonyl)-4-((2-oxopyridin-1(2H)-yl)methyl)benzyl)isonicotinamide]
